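Interpolation was linear, between the two tested concentrations surrounding the appropriate level; five concentrations were tested over 48 hours in 96-well plates. TGI denotes the concentration required for complete inhibition of growth.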 Peptide text beside a SMILES is read from it. * marks the point of attachment. Cbz = O=C(OCc1ccccc1)*
How the values were obtained:
Test in all cases: NCI-60 cell line screen, 48 h
[1] = test system: KM12 colon
[2] = test system: SW-620 colon
[3] = test system: SNB-19 CNS
[4] = test system: NCI-H226 lung
[5] = test system: CCRF-CEM leukemia
[6] = test system: HOP-92 NSCLC
[7] = test system: HCT-15 colon
[8] = test system: UACC-257 melanoma
[9] = test system: M14 melanoma
[10] = test system: HL-60(TB) leukemia
[11] = test system: SK-MEL-5 melanoma
[12] = test system: 786-0 renal
[13] = test system: OVCAR-8 ovarian
[14] = test system: RXF 393 renal
[15] = test system: NCI/ADR-RES ovarian

Row | SMILES | TGI [1] | TGI [2] | TGI [3] | TGI [4] | TGI [5] | TGI [6] | TGI [7] | TGI [8] | TGI [9] | TGI [10] | TGI [11] | TGI [12] | TGI [13] | TGI [14] | TGI [15]
1 | N#CC(C(=S)Nc1ccccc1)=C1Nc2ccccc2N1 | > 10 µM | > 10 µM | > 10 µM | > 10 µM | > 10 µM | > 10 µM | > 10 µM | > 10 µM | > 10 µM | > 10 µM | > 10 µM | > 10 µM | > 10 µM |  | 
2 | FC(F)(F)c1nc2c(ccc3[nH]c4c(-c5ccccc5)nccc4c32)[nH]1 | > 100 µM | > 100 µM | > 100 µM | > 100 µM | > 69.1 µM | > 100 µM | > 100 µM | > 100 µM | > 100 µM | > 100 µM | > 100 µM | > 100 µM | > 100 µM | > 100 µM | 
3 | CC(=O)OCc1ncccc1C(OC(C)=O)OC(C)=O | > 100 µM | > 100 µM | > 100 µM |  | > 100 µM | > 100 µM | > 100 µM | > 100 µM | > 100 µM | > 100 µM | > 100 µM | > 100 µM | > 100 µM | > 100 µM | 
4 | COc1ccc(OC)c2c1ccc1c(C)c3ccccc3c(C)c12 |  |  | > 100 µM | > 100 µM | > 100 µM |  | > 100 µM | > 100 µM | > 100 µM | > 100 µM |  | > 100 µM | > 100 µM |  | 
5 | CN(C)CCSC(=Nc1ccccc1)n1cccc1 | > 100 µM | > 100 µM | > 100 µM | 75.7 µM | > 100 µM | 82.1 µM | > 100 µM | > 100 µM | > 100 µM | > 100 µM | > 100 µM | > 100 µM | > 100 µM | > 100 µM | 
6 | CC1=C(c2ccccc2)CON(c2ccccc2)C1 | > 100 µM | > 100 µM | > 100 µM | > 100 µM | > 100 µM |  | > 100 µM | > 100 µM | > 100 µM | 76.2 µM | 47.5 µM | > 100 µM | > 100 µM | 86.2 µM | 
7 | C[C@@H]1C[C@@H]2C(=O)N(c3ccccc3)C(=O)[C@@H]2c2[nH]c3ccc(Br)cc3c21 | 75.4 µM | > 100 µM | > 100 µM |  | > 100 µM | 62.2 µM | > 100 µM | > 100 µM | > 100 µM | > 100 µM | > 100 µM | > 100 µM | 47.1 µM | 78.5 µM | 
8 | O[C@]12c3ccccc3C1CCCC2N1CCOCC1 (some centres undefined) | > 100 µM | > 100 µM | > 100 µM | > 100 µM | > 100 µM |  | > 100 µM | > 100 µM | > 100 µM | > 100 µM | > 100 µM | > 100 µM | > 100 µM | > 100 µM | 
9 | CCOC(=O)CCC(NC(=O)CNC(=O)CNC(=O)C(CCC(=O)OCC)NC(=O)C(CCC(=O)OCC)NC(=O)C(CCC(=O)OCC)NC(=O)OCc1ccccc1)C(=O)NC(CCC(=O)OCC)C(=O)NC(CCC(=O)OCC)C(=O)OCC (centres undefined) (Cbz-E(OEt)E(OEt)E(OEt)GGE(OEt)E(OEt)E(OEt)-OEt; configuration not given here) | > 75 µM | > 75 µM | > 75 µM |  | > 75 µM |  | > 75 µM | > 75 µM | > 75 µM |  | > 75 µM | > 75 µM | > 75 µM | > 75 µM | > 75 µM

Source: PubChem BioAssay (NCI)
